The values below come from patent US4189484A, “Antihypertensive quinazoline derivatives” (priority 1977, dated 1980).

The subject of the experiment is spontaneously hypertensive rats (SHR). Put plainly: Antihypertensive effect, oral administration to spontaneously hypertensive rats (mean blood pressure and heart rate). It counts as in vivo, rat. The settings on record: SHR, p.o.; for Changes in average blood pressures after administration: Table 3; for Change in blood pressure after 3 hrs. from administration: Table 1, 10 mg./kg. The procedure: Antihypertensive effect was determined by oral administration of the test compound to spontaneously hypertensive rats (hereinafter referred to as SHR).
These SHR were anesthetized with ether and chronically embedded with a cannula for determination of blood pressure so that one end of the said cannula may be placed in abdominal aorta and the other end thereof may be projected out of dorsal neck. When rats regained their body weight before operation in more than 1 week from operation, the test compound was given. Determination was made by measuring a mean blood pressure and a heart rate under unanesthetized and unrestrained conditions with the cannula connected to an electronic recording system. The test compound was suspended in a 1% tragacanth gum solution to make up a concentration so as to be a volume of 5 ml./kg. and then orally given.

For “2-{4-[3-(5-Chlorothiophen-2-yl)-acryloyl]-piperazin-1-yl}-4-amino-6,7-dimethoxyquinazoline [compound 42]”, the “Changes in average blood pressures after administration” value (“Changes in average blood pressures” below) is on record as -6 mmHg (3 mg./kg., 1 hr.); -6 mmHg (3 mg./kg., 3 hrs.); -7 mmHg (3 mg./kg., 6 hrs.); -2 mmHg (3 mg./kg., 24 hrs.).

For `COc1cc2nc(N3CCN(C(=O)C=Cc4ccccc4C)CC3)nc(N)c2cc1OC` [compound 2, 2-[4-(2-Methylcinnamoyl)-piperazin-1-yl]-4-amino-6,7-dimethoxyquinazoline], the “Change in blood pressure after 3 hrs. from administration” value (“Change in blood pressure” below) (3 hrs.) is reported as -43 mmHg.

For the compound `COc1cc2nc(N3CCN(C(=O)C=Cc4cccc(C)c4)CC3)nc(N)c2cc1OC` [compound 3, 2-[4-(3-Methylcinnamoyl)-piperazin-1-yl]-4-amino-6,7-dimethoxyquinazoline], the “Change in blood pressure” value (3 hrs.) is -35 mmHg.

In the case of `COc1cc2nc(N3CCN(C(=O)C=Cc4ccc(C)cc4)CC3)nc(N)c2cc1OC` [compound 4, 2-[4-(4-Methylcinnamoyl)-piperazin-1-yl]-4-amino-6,7-dimethoxyquinazoline], the “Change in blood pressure” value (3 hrs.) is -18 mmHg.

In the case of `COc1cccc(C=CC(=O)N2CCN(c3nc(N)c4cc(OC)c(OC)cc4n3)CC2)c1` [compound 7, 2-[4-(3-Methoxycinnamoyl)-piperazin-1-yl]-4-amino-6,7-dimethoxyquinazoline], the “Change in blood pressure” value (3 hrs.) was -18 mmHg.

For the compound `COc1cc(C=CC(=O)N2CCN(c3nc(N)c4cc(OC)c(OC)cc4n3)CC2)cc(OC)c1` [compound 13, 2-[4-(3,5-Dimethoxycinnamoyl)-piperazin-1-yl]-4-amino-6,7-dimethoxyquinazoline], where the note is “3 hrs.”, the “Change in blood pressure” value is -12 mmHg.

With `COc1cc2nc(N3CCN(C(=O)C=Cc4ccc(OC)c(OC)c4OC)CC3)nc(N)c2cc1OC` [compound 14, 2-[4-(2,3,4-Trimethoxycinnamoyl)-piperazin-1-yl]-4-amino-6,7-dimethoxyquinazoline], the “Change in blood pressure” value (3 hrs.) is recorded as -22 mmHg.

As to `C=CCOc1ccc(C=CC(=O)N2CCN(c3nc(N)c4cc(OC)c(OC)cc4n3)CC2)cc1` [compound 17, 2-[4-(4-Allyloxycinnamoyl)-piperazin-1-yl]-4-amino-6,7-dimethoxyquinazoline], under “3 hrs.”, the “Change in blood pressure” value is recorded as -18 mmHg.

Consider `COc1cc2nc(N3CCN(C(=O)C=Cc4ccc(Br)cc4)CC3)nc(N)c2cc1OC` [compound 21, 2-[4-(4-Bromocinnamoyl)-piperazin-1-yl]-4-amino-6,7-dimethoxyquinazoline], for which the “Change in blood pressure” value (3 hrs.) is reported as -22 mmHg.

On to `COc1cc2nc(N3CCN(C(=O)C=Cc4cccc(C(F)(F)F)c4)CC3)nc(N)c2cc1OC` [compound 22, 2-[4-(3-Trifluoromethylcinnamoyl)-piperazin-1-yl]-4-amino-6,7-dimethoxyquinazoline], for which, under “3 hrs.”, the “Change in blood pressure” value was -10 mmHg.

`COc1cc2nc(N3CCN(C(=O)C=Cc4ccc(N(C)C)cc4)CC3)nc(N)c2cc1OC` [compound 23, 2-[4-(4-Dimethylaminocinnamoyl)-piperazin-1-yl]-4-amino-6,7-dimethoxyquinazoline]: the “Change in blood pressure” value (3 hrs.) was -15 mmHg.

As to `COc1cc2nc(N3CCN(C(=O)C=Cc4ccoc4)CC3)nc(N)c2cc1OC` [compound 29, 2-{4-[3-(Furan-3-yl)-acryloyl]-piperazin-1-yl]-4-amino-6,7-dimethoxyquinazoline], the “Changes in average blood pressures” value is given as -25 mmHg (1 mg./kg., 1 hr.); -28 mmHg (1 mg./kg., 3 hrs.); -37 mmHg (1 mg./kg., 6 hrs.); -17 mmHg (1 mg./kg., 24 hrs.).

Take `COc1cc2nc(N3CCN(C(=O)C=Cc4ccc(C)o4)CC3)nc(N)c2cc1OC` [compound 30, 2-{4-[3-(5-Methylfuran-2-yl)-acryloyl]-piperazin-1-yl}-4-amino-6,7-dimethoxyquinazoline]: the “Changes in average blood pressures” value is listed as -13 mmHg (1 mg./kg., 1 hr.); -12 mmHg (1 mg./kg., 3 hrs.); -15 mmHg (1 mg./kg., 6 hrs.); 0 mmHg (1 mg./kg., 24 hrs.).

In the case of `COc1cc2nc(N3CCN(C(=O)C(C)=Cc4ccco4)CC3)nc(N)c2cc1OC` [compound 31, 2-{4-[2-Methyl-3-(furan-2-yl)-acryloyl]-piperazin-1-yl}-4-amino-6,7-dimethoxyquinazoline], the “Changes in average blood pressures” value (1 mg./kg., 1 hr.) is -22 mmHg; the “Changes in average blood pressures” value (1 mg./kg., 3 hrs.) is listed as -23 mmHg; the “Changes in average blood pressures” value (1 mg./kg., 6 hrs.) was -24 mmHg; the “Changes in average blood pressures” value (1 mg./kg., 24 hrs.) is reported as -6 mmHg.

Turning to `COc1cc2nc(N3CCN(C(=O)C=Cc4ccc([N+](=O)[O-])o4)CC3)nc(N)c2cc1OC` [compound 33, 2-{4-[3-(5-Nitrofuran-2-yl)-acryloyl]-piperazin-1-yl}-4-amino-6,7-dimethoxyquinazoline], the “Changes in average blood pressures” value reads like this: (3 mg./kg., 1 hr.) -15 mmHg; (3 mg./kg., 3 hrs.) -20 mmHg; (3 mg./kg., 6 hrs.) -11 mmHg; (3 mg./kg., 24 hrs.) 3 mmHg.

Consider `COc1cc2nc(N3CCN(C(=O)C=Cc4ccc(Cl)o4)CC3)nc(N)c2cc1OC` [compound 34, 2-{4-[3-(5-chlorofuran-2-yl)-acryloyl]-piperazin-1-yl}-4-amino-6,7-dimethoxyquinazoline], for which the “Changes in average blood pressures” value (3 mg./kg., 1 hr.) was -20 mmHg; the “Changes in average blood pressures” value (3 mg./kg., 3 hrs.) is recorded as -26 mmHg; the “Changes in average blood pressures” value (3 mg./kg., 6 hrs.) is -28 mmHg; the “Changes in average blood pressures” value (3 mg./kg., 24 hrs.) came to 0 mmHg.

For the compound `COc1cc2nc(N3CCN(C(=O)C=Cc4cccs4)CC3)nc(N)c2cc1OC` [compound 35, 2-{4-[3-(Thiophen-2-yl)-acryloyl]-piperazin-1-yl}-4-amino-6,7-dimethoxyquinazoline], the “Changes in average blood pressures” value is, setting by setting: (1 mg./kg., 1 hr.) -27 mmHg; (1 mg./kg., 3 hrs.) -25 mmHg; (1 mg./kg., 6 hrs.) -25 mmHg; (1 mg./kg., 24 hrs.) 0 mmHg; (3 mg./kg., 1 hr.) -45 mmHg; (3 mg./kg., 3 hrs.) -27 mmHg. Besides, the “Changes in average blood pressures” value reads like this: (3 mg./kg., 6 hrs.) -42 mmHg; (3 mg./kg., 24 hrs.) -2 mmHg.

On to `COc1cc2nc(N3CCN(C(=O)C=Cc4ccsc4)CC3)nc(N)c2cc1OC` [compound 36, 2-{4-[3-(Thiophen-3-yl)-acryloyl]-piperazin-1-yl}-4-amino-6,7-dimethoxyquinazoline], for which the “Changes in average blood pressures” value is, setting by setting: (1 mg./kg., 1 hr.) -18 mmHg; (1 mg./kg., 3 hrs.) -20 mmHg; (1 mg./kg., 6 hrs.) -27 mmHg; (1 mg./kg., 24 hrs.) 3 mmHg; (3 mg./kg., 1 hr.) -47 mmHg; (3 mg./kg., 3 hrs.) -30 mmHg. Further, the “Changes in average blood pressures” value (3 mg./kg., 6 hrs.) is given as -35 mmHg and the “Changes in average blood pressures” value (3 mg./kg., 24 hrs.) amounted to 0 mmHg.

Regarding `COc1cc2nc(N3CCN(C(=O)C=Cc4sccc4C)CC3)nc(N)c2cc1OC` [compound 37, 2-{4-[3-(3-Methylthiophen-2-yl)-acryloyl]-piperazin-1-yl}-4-amino-6,7-dimethoxyquinazoline], the “Changes in average blood pressures” value is recorded as -18 mmHg (3 mg./kg., 1 hr.); -18 mmHg (3 mg./kg., 3 hrs.); -18 mmHg (3 mg./kg., 6 hrs.); 5 mmHg (3 mg./kg., 24 hrs.).

With `COc1cc2nc(N3CCN(C(=O)C=Cc4ccc(C)s4)CC3)nc(N)c2cc1OC` [compound 38, 2-{4-[3-(5-Methylthiophen-2-yl)-acryloyl]-piperazin-1-yl}-4-amino-6,7-dimethoxyquinazoline], the “Changes in average blood pressures” value is, setting by setting: (3 mg./kg., 1 hr.) -18 mmHg; (3 mg./kg., 3 hrs.) -27 mmHg; (3 mg./kg., 6 hrs.) -18 mmHg; (3 mg./kg., 24 hrs.) -2 mmHg.

For `COc1cc2nc(N3CCN(C(=O)C(C)=Cc4cccs4)CC3)nc(N)c2cc1OC` [compound 39, 2-{4-[2-Methyl-3-(thiophen-2-yl)-acryloyl]-piperazin-1-yl}-4-amino-6,7-dimethoxyquinazoline], the “Changes in average blood pressures” value runs as follows: (1 mg./kg., 1 hr.) -18 mmHg; (1 mg./kg., 3 hrs.) -12 mmHg; (1 mg./kg., 6 hrs.) -13 mmHg; (1 mg./kg., 24 hrs.) 3 mmHg; (3 mg./kg., 1 hr.) -65 mmHg; (3 mg./kg., 3 hrs.) -27 mmHg. For the same compound, the “Changes in average blood pressures” value by setting is: (3 mg./kg., 6 hrs.) -35 mmHg; (3 mg./kg., 24 hrs.) -15 mmHg.
